Measurements from ChEMBL document CHEMBL1201862, “PubChem BioAssay data set” (2004).
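Where inhibition never reached the appropriate level, the endpoint shown equals the highest concentration tested. Otherwise, values were interpolated linearly from a five-concentration, 48-hour dose response in 96-well plates. The concentration for 50% growth inhibition is given as GI50.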 The source made the active and inactive calls. No stated cut-off is given here; in the data, active = GI50 up to about 1.1 µM and inactive = higher.

What was measured:
Assay in all cases: inhibition of tumour cell growth, NCI panel, 48 h
[1] = test system: 786-0
[2] = test system: A549
[3] = test system: COLO 205
[4] = test system: M14
[5] = test system: NCI-H226
[6] = test system: NCI-H460
[7] = test system: OVCAR-8
[8] = test system: RXF 393
[9] = test system: SN12C
[10] = test system: SNB-19
[11] = test system: SW-620
[12] = test system: TK-10
[13] = test system: U-251
[14] = test system: EKVX
[15] = test system: SK-MEL-2
[16] = test system: A498

Measured: GI50

CN(O)C(=O)c1ccccc1
inactive: [1] > 100 µM | [2] > 100 µM | [3] > 100 µM | [4] > 100 µM | [5] > 100 µM | [6] > 100 µM | [7] > 100 µM | [8] > 100 µM | [9] > 100 µM | [10] > 100 µM | [11] > 100 µM | [12] > 100 µM | [13] > 100 µM

COc1ccc(-c2onc(-c3ccc([N+](=O)[O-])cc3)c2C2=NCCCN2)cc1
inactive: [1] > 100 µM | [2] > 100 µM | [3] 43.6 µM | [14] > 100 µM | [4] 38.8 µM | [5] 38.8 µM | [6] 51.8 µM | [7] 81.1 µM | [8] 88.1 µM | [15] > 100 µM | [9] > 100 µM | [10] > 100 µM | [11] > 100 µM | [13] > 100 µM

O=C(O)Cc1cc(=O)[nH]c2c1/C(=N/O)CCC2
inactive: [1] > 100 µM | [2] > 100 µM | [14] > 100 µM | [4] > 100 µM | [5] > 100 µM | [6] > 100 µM | [7] > 100 µM | [8] > 100 µM | [15] > 100 µM | [9] > 100 µM | [10] > 100 µM | [11] > 100 µM | [12] > 100 µM | [13] > 100 µM

Cc1cc2nc3c(=O)n(C)c(=O)nc-3n(-c3ccc(Cl)cc3)c2cc1C
inactive: [1] 16.1 µM | [16] 31.1 µM | [2] 3.52 µM | [3] 2.24 µM | [14] 20.1 µM | [4] 3.29 µM | [5] 13.1 µM | [6] 3.3 µM | [7] 13.1 µM | [15] 11.8 µM | [9] 5.85 µM | [10] 5.78 µM | [11] 4.2 µM | [12] 31.9 µM | [13] 9.66 µM

C=C1C2Oc3ccccc3C1N(c1ccccc1)O2 (centres undefined)
inactive: [1] 41.5 µM | [2] 30.4 µM | [3] 48.5 µM | [14] 42.9 µM | [4] 22.1 µM | [5] 37.9 µM | [6] 20.8 µM | [7] 17 µM | [8] 30.9 µM | [15] 9.14 µM | [9] 23.7 µM | [10] 49 µM | [11] 34.8 µM | [12] 84.9 µM | [13] 27.2 µM

CCCCCCCCCCNC(=S)OC
inactive: [1] 49.3 µM | [16] 46.2 µM | [2] 34.3 µM | [14] 80 µM | [4] 63.1 µM | [6] > 100 µM | [7] 48.2 µM | [8] 33.7 µM | [9] 26.7 µM | [10] 59.2 µM | [11] 42.8 µM | [12] 98.2 µM | [13] 33.1 µM

Cc1ccc(C)c(N2C(=O)C(=O)C(c3nc4ccccc4o3)/C(=N\NC(=O)c3ccccc3O)C2=O)c1 (centres undefined)
inactive: [1] 27.4 µM | [16] 13 µM | [2] 13.6 µM | [3] 24.2 µM | [14] 22.8 µM | [4] 32.3 µM | [5] 12.2 µM | [7] 19.8 µM | [15] 29.6 µM | [9] 26.2 µM | [10] 12.3 µM | [11] 29.6 µM | [12] 44 µM | [13] 24.4 µM

Cc1cc(N(CCC#N)CCC#N)ccc1/C=C1/N=C(c2ccccc2)N(N)C1=O
inactive: [1] 37.6 µM | [16] > 100 µM | [2] 84.1 µM | [3] > 100 µM | [14] > 100 µM | [4] > 100 µM | [5] > 100 µM | [7] > 100 µM | [15] > 100 µM | [9] > 100 µM | [10] 31.1 µM | [11] 85.5 µM | [12] 74.1 µM | [13] 63.7 µM

Cc1ccc([N+](=O)[O-])cc1NC(=O)C(=O)Cc1occc(=O)c1O
inactive: [1] > 100 µM | [16] > 100 µM | [2] > 100 µM | [3] > 100 µM | [14] > 100 µM | [5] > 100 µM | [6] > 100 µM | [7] > 100 µM | [8] > 100 µM | [9] > 100 µM | [10] > 100 µM | [11] > 100 µM | [12] > 100 µM | [13] > 100 µM

CC(Oc1ccc(OCC2CCCCC2)cc1)C(=O)N(CCO)CCO (centres undefined)
inactive: [1] > 100 µM | [16] > 100 µM | [2] > 100 µM | [4] > 100 µM | [5] > 100 µM | [6] > 100 µM | [7] > 100 µM | [8] > 100 µM | [15] > 100 µM | [9] > 100 µM | [10] > 100 µM | [12] > 100 µM | [13] > 100 µM
